Values quoted from earlier work, collected in US20150024025A1, “ALIGNED N[…] AXONAL RE[…] SPINAL CORD INJURY OR SURGERY” (THE UAB RESEARCH FOUNDATION, priority 2012, published 2015).

System: spinal cord injury

Substance: chondroitinase ABC
- axonal repair and regeneration in vivo after spinal cord injury: promotes axonal repair and regeneration
